In the kinase profiling compilation of Christmann-Franck et al. (2016):

What was measured:
Assay in all cases: KINOMEscan competition binding
Settings in all cases: compound 10.0 µM
[1] = biological target: CDC42BPA (human) (UniProt Q5VT25)
[2] = biological target: AXL (human) (UniProt P30530)
[3] = biological target: AKT1 (human) (UniProt P31749)
[4] = biological target: ULK1 (human) (UniProt O75385)
[5] = biological target: EPHA8 (human) (UniProt P29322)
[6] = biological target: LIMK1 (human) (UniProt P53667)
[7] = biological target: SIK1 (human) (UniProt P57059)
[8] = biological target: PRKG2 (human) (UniProt Q13237)
[9] = biological target: MAP3K10 (human) (UniProt Q02779)
[10] = biological target: FLT4 (human) (UniProt P35916)
[11] = biological target: MAPK12 (human) (UniProt P53778)
MAPK12 (human), sequence (P53778 whole entry, looked up): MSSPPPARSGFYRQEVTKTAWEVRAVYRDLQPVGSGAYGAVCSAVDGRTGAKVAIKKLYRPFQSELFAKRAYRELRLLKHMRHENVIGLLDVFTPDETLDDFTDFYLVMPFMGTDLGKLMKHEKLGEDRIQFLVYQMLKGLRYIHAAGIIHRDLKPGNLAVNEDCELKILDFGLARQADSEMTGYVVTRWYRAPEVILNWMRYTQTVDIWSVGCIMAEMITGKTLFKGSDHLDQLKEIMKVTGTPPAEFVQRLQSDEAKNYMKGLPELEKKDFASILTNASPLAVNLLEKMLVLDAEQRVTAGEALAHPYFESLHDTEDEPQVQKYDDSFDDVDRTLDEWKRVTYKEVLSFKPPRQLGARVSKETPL

[12] = biological target: CDC42BPB (human) (UniProt Q9Y5S2)
[13] = biological target: ACVR1B (human) (UniProt P36896)
ACVR1B (human), sequence (P36896 whole entry, looked up): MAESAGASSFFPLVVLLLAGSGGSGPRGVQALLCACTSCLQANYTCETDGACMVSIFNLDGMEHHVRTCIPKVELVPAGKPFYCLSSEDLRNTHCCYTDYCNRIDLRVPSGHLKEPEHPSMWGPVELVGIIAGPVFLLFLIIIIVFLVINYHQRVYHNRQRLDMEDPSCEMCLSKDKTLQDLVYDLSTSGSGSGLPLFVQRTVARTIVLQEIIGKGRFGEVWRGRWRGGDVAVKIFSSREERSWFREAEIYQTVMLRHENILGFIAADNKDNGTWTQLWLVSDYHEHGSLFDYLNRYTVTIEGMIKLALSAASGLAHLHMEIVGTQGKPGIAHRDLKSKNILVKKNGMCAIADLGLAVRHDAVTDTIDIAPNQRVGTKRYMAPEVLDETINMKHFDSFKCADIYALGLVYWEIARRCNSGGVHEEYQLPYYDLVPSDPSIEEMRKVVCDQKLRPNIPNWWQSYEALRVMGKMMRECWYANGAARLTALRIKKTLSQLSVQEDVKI

[14] = biological target: NTRK1 (human) (UniProt P04629)
[15] = biological target: LYN (human) (UniProt P07948)
[16] = biological target: FGFR1 (human) (UniProt P11362)
FGFR1 (human), sequence (P11362 whole entry, looked up): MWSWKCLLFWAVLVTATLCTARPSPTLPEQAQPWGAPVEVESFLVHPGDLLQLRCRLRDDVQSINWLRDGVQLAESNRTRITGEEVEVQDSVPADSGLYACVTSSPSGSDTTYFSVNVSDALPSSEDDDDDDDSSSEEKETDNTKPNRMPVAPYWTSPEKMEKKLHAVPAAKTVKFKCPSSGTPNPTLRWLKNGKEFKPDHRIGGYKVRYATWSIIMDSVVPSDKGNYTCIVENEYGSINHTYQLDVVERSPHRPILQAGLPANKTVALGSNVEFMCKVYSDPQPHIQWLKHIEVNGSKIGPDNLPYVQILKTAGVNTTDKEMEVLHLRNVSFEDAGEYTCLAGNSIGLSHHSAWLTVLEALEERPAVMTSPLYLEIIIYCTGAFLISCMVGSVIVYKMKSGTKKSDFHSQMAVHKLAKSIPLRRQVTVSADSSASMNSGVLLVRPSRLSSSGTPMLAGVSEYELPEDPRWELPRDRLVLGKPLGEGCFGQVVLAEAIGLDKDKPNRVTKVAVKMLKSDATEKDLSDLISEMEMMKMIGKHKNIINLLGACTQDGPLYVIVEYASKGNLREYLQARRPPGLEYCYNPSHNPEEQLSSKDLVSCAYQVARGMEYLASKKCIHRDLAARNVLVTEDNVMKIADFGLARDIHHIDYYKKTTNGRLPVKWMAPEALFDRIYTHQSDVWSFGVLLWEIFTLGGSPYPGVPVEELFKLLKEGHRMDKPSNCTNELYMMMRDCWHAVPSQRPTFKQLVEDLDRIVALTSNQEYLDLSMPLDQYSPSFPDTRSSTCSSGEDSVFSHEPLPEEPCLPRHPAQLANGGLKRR

[17] = biological target: NTRK3 (human) (UniProt Q16288)
[18] = test system: FGFR3 (human), P22607 [G697C]
[19] = biological target: EPHB2 (human) (UniProt P29323)
[20] = biological target: MAP3K4 (human) (UniProt Q9Y6R4)
[21] = biological target: IGF1R (human) (UniProt P08069)
[22] = biological target: MARK2 (human) (UniProt Q7KZI7)
MARK2 (human), sequence (Q7KZI7 whole entry, looked up): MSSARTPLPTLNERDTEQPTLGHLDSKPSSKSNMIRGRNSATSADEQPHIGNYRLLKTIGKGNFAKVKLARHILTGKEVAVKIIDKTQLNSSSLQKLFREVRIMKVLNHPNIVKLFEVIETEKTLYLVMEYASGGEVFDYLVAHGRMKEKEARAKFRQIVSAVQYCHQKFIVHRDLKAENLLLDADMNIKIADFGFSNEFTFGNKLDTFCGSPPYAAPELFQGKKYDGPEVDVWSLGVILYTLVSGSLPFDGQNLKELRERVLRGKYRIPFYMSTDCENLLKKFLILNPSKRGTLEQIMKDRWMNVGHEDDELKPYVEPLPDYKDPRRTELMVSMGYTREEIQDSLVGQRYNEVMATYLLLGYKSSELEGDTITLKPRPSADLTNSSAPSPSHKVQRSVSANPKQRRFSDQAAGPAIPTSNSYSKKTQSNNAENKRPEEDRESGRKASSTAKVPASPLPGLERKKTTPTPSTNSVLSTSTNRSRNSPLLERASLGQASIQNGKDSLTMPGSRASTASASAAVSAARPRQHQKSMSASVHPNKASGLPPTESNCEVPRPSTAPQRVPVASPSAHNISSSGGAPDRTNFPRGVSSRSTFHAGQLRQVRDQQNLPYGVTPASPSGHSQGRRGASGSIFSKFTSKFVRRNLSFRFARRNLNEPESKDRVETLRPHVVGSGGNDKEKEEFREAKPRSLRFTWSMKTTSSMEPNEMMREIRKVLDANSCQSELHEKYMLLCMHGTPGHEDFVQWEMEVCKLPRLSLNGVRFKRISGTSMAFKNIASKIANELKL

[23] = biological target: EPHB1 (human) (UniProt P54762)
[24] = biological target: EPHB3 (human) (UniProt P54753)
[25] = biological target: IKBKB (human) (UniProt O14920)
IKBKB (human), sequence (O14920 whole entry, looked up): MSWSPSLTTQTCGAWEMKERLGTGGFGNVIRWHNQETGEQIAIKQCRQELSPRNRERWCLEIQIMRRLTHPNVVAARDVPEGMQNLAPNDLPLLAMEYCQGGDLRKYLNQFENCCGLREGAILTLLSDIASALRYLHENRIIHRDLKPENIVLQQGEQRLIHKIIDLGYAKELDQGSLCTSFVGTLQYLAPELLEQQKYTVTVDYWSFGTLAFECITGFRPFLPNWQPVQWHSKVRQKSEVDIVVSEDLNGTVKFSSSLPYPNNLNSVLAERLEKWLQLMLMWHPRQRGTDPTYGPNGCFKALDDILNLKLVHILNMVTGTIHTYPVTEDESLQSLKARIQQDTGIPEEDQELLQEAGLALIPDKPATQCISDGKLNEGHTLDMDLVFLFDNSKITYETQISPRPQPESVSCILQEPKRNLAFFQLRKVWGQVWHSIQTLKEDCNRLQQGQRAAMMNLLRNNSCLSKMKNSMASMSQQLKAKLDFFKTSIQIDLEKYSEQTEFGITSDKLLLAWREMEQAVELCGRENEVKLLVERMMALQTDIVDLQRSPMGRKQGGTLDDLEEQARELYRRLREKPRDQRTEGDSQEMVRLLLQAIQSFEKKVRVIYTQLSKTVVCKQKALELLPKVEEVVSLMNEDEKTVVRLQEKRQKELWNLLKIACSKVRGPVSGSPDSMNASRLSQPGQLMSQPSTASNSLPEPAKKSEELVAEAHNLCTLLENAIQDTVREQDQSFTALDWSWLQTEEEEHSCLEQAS

[26] = biological target: CSF1R (human) (UniProt P07333)
[27] = biological target: EPHA3 (human) (UniProt P29320)
[28] = biological target: ANKK1 (human) (UniProt Q8NFD2)
[29] = biological target: PRKACB (human) (UniProt P22694)
[30] = biological target: MYO3A (human) (UniProt Q8NEV4)
[31] = biological target: RPS6KA2 KD1 (human) (UniProt Q15349)
[32] = biological target: MAP4K1 (human) (UniProt Q92918)
[33] = biological target: PRKAA2 (human) (UniProt P54646)
[34] = biological target: MAPK1 (human) (UniProt P28482)
[35] = biological target: PTK6 (human) (UniProt Q13882)
PTK6 (human), sequence (Q13882 whole entry, looked up): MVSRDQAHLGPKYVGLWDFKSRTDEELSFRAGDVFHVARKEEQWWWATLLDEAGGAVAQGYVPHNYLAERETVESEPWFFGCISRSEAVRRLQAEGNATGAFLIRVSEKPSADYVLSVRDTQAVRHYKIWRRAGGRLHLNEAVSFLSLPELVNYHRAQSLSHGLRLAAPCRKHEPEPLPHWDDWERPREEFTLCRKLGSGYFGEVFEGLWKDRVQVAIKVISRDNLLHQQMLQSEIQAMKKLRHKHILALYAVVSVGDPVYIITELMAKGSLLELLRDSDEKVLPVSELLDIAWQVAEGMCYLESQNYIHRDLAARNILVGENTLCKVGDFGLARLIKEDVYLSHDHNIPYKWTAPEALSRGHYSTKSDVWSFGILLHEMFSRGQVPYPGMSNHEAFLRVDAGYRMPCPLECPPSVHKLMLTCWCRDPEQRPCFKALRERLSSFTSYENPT

[36] = biological target: NEK6 (human) (UniProt Q9HC98)
[37] = biological target: KDR (human) (UniProt P35968)
[38] = biological target: FGFR2 (human) (UniProt P21802)
[39] = biological target: CAMK2D (human) (UniProt Q13557)
[40] = test system: ABL1 (human), P00519 [Y253F]
[41] = test system: PIK3CA (human), P42336 [E545K]
PIK3CA (human), P42336 [E545K], sequence (P42336 whole entry E545K, looked up): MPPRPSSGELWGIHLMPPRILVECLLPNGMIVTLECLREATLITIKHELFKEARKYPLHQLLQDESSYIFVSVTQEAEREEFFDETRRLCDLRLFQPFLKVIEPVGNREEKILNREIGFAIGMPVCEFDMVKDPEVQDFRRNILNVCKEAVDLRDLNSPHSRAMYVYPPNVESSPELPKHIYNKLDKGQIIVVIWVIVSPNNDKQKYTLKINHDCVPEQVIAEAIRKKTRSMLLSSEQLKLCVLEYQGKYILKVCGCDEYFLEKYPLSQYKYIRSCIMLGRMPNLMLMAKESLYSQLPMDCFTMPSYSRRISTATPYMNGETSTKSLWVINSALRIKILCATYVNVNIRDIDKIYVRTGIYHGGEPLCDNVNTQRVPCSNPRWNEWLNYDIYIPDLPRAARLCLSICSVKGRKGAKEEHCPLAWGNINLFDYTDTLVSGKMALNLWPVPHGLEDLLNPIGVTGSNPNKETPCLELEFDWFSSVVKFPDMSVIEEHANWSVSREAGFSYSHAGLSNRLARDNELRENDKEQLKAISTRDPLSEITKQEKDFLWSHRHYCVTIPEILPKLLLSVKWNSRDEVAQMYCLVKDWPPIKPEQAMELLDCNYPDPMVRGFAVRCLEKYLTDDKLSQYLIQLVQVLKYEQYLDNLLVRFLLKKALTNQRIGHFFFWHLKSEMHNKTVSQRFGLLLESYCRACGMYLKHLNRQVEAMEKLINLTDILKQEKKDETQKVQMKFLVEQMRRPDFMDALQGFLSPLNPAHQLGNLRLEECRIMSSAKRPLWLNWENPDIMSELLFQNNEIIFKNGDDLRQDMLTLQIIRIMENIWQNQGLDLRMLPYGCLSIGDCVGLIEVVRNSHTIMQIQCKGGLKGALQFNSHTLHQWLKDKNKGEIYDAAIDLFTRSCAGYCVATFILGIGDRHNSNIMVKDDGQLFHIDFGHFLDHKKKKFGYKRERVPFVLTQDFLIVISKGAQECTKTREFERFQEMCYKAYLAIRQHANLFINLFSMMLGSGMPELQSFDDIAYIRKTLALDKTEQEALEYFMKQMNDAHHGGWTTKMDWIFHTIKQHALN

[42] = biological target: PHKG1 (human) (UniProt Q16816)

## COc1cc(N2CCN(C)CC2)ccc1Nc1ncc2c(n1)N(C)c1ccccc1N(C)C2=O
[1]
  kinase still bound, per cent of control: 100%
[2]
  kinase still bound, per cent of control: 95%
[3]
  kinase still bound, per cent of control: 91%
[4]
  kinase still bound, per cent of control: 100%
[5]
  kinase still bound, per cent of control: 100%
[6]
  kinase still bound, per cent of control: 95%
[7]
  kinase still bound, per cent of control: 100%
[8]
  kinase still bound, per cent of control: 99%
[9]
  kinase still bound, per cent of control: 100%
[10]
  kinase still bound, per cent of control: 100%
[11]
  kinase still bound, per cent of control: 78%
[12]
  kinase still bound, per cent of control: 100%
[13]
  kinase still bound, per cent of control: 100%
[14]
  kinase still bound, per cent of control: 76%
[15]
  kinase still bound, per cent of control: 79%
[16]
  kinase still bound, per cent of control: 100%
[17]
  kinase still bound, per cent of control: 79%
[18]
  kinase still bound, per cent of control: 100%
[19]
  kinase still bound, per cent of control: 68%
[20]
  kinase still bound, per cent of control: 100%
[21]
  kinase still bound, per cent of control: 100%
[22]
  kinase still bound, per cent of control: 100%
[23]
  kinase still bound, per cent of control: 100%
[24]
  kinase still bound, per cent of control: 100%
[25]
  kinase still bound, per cent of control: 75%
[26]
  kinase still bound, per cent of control: 27%
[27]
  kinase still bound, per cent of control: 81%
[28]
  kinase still bound, per cent of control: 91%
[29]
  kinase still bound, per cent of control: 100%
[30]
  kinase still bound, per cent of control: 74%
[31]
  kinase still bound, per cent of control: 82%
[32]
  kinase still bound, per cent of control: 100%
[33]
  kinase still bound, per cent of control: 94%
[34]
  kinase still bound, per cent of control: 100%
[35]
  kinase still bound, per cent of control: 32%
[36]
  kinase still bound, per cent of control: 100%
[37]
  kinase still bound, per cent of control: 100%
[38]
  kinase still bound, per cent of control: 100%
[39]
  kinase still bound, per cent of control: 99%
[40]
  kinase still bound, per cent of control: 100%
[41]
  kinase still bound, per cent of control: 97%
[42]
  kinase still bound, per cent of control: 54%
